Data reported in PMC12217481, “Structure and mechanism of taniborbactam inhibition of the cefepime-hydrolyzing, partial R2-loop deletion Pseudomonas-derived cephalosporinase variant PDC-88” (Antimicrobial Agents and Chemotherapy, 2025).
Converted amounts (≈) assume the structure as drawn. Where two headings read alike, the source gives them in different places.

Key:
[1] = test system: E. coli DH10B/pTU501 (vector); assay: Broth microdilution MIC, isogenic E. coli empty vector control; type: cell-based; conditions: Escherichia coli
Experimental: (§1) Genetic constructs used for minimum inhibitory concentration (MIC) testing were designed by Venatorx Pharmaceuticals and codon-optimized for use in E. coli and synthesized by Twist Bioscience as described previously ([9]). […] DH10B cells expressing an empty pET24a(+) vector (Novagen) were also grown, and the plasmid purified. Both pCR4-TOPO-PDC-88 and empty pET24a(+) were cut with BamHI and NdeI, the digests run on low-melting point agarose gels, and the bands of interest excised and ligated to yield a PDC-88 expressing pET24a(+) construct with the His tag removed. The PDC-3 expression construct was created in a similar manner but starting with a previously described pBC SK(−) vector ([42]). The final plasmids were grown in E. coli DH10B cells and purified.
(§2) Modal broth microdilution MICs (or median broth microdilution MICs where appropriate) were determined in accordance with Clinical and Laboratory Standards Institute (CLSI) M07 guidelines ([43]). Isogenic E. coli DH10B cells expressing the abovementioned plasmid-encoded PDC constructs were used. […] CLSI quality control strains Escherichia coli NCTC 13353, E. coli ATCC 35218, and Klebsiella pneumoniae ATCC 700603 were used during testing ([24]).

[2] = test system: E. coli DH10B/pTU606 (PDC-1); assay: Broth microdilution MIC, isogenic E. coli expressing PDC-1; type: cell-based; conditions: Escherichia coli
Experimental: as §1, §2

[3] = test system: E. coli DH10B/pTU609 (PDC-3); assay: Broth microdilution MIC, isogenic E. coli expressing PDC-3; type: cell-based; conditions: Escherichia coli
Experimental: as §1, §2

[4] = test system: E. coli DH10B/pTU625 (PDC-88); assay: Broth microdilution MIC, isogenic E. coli expressing PDC-88; type: cell-based, Escherichia coli; conditions: for MIC: Escherichia coli
Experimental: as §1, §2

[5] = test system: E. coli DH10B/pTU626 (PDC-89); assay: Broth microdilution MIC, isogenic E. coli expressing PDC-89; type: cell-based; conditions: Escherichia coli
Experimental: as §1, §2

[6] = test system: E. coli DH10B/pTU627 (PDC-90); assay: Broth microdilution MIC, isogenic E. coli expressing PDC-90; type: cell-based; conditions: Escherichia coli
Experimental: as §1, §2

[7] = test system: E. coli DH10B/pTU628 (PDC-91); assay: Broth microdilution MIC, isogenic E. coli expressing PDC-91; type: cell-based; conditions: Escherichia coli
Experimental: as §1, §2

[8] = test system: E. coli DH10B/pTU629 (PDC-92); assay: Broth microdilution MIC, isogenic E. coli expressing PDC-92; type: cell-based; conditions: Escherichia coli
Experimental: as §1, §2

E. coli NCTC 13353 = assay: Broth microdilution MIC, CLSI quality control strain; type: cell-based; conditions: Escherichia coli
Experimental: as §2

PDC-3 = molecular target: T1, PDC-3 (Pseudomonas aeruginosa, UniProt P24735, T105A); assay: Spectrophotometric β-lactam hydrolysis (progress curves, steady-state kinetics) by PDC-3; type: biochemical
T1 construct: The PDC-3 expression construct was created in a similar manner but starting with a previously described pBC SK(−) vector; made in house; host or cells: E. coli BL21-CodonPlus (DE3)-RP, pET24a(+)
Experimental: (§3) In order to determine the impact of the PDC-88 variant on hydrolysis, we determined hydrolysis progress curves for PDC-3, PDC-88, and a strongly hydrolyzing comparator (NDM-1 or PER-2) for cefepime (FEP, Fig. 3A), ceftazidime (CAZ, Fig. 3B), ceftolozane (TOL, Fig. 3C), and aztreonam (ATM, Fig. 3D).
(§4) β-Lactamase kinetic and inhibitor constants were determined using an Agilent 8453 UV-Visible Spectrophotometer to record progress curves and determine initial rates and other kinetic parameters as appropriate. Reactions were carried out in 1× phosphate-buffered saline (PBS) (pH 7.4) at room temperature in a 0.2 cm path-length quartz cuvette (Hellma Analytics). Reads were taken every 10 s to minimize UV-mediated background hydrolysis.
(§5) The extinction coefficients used were: nitrocefin, Δε482 = 17,400 M^−1 cm^−1, and cefepime, Δε260 = −10,000 M^−1 cm^−1.
(§6) The kinetic constants KM and Vmax were determined using a nonlinear least-squares regression of the data to the Henri-Michaelis-Menten equation (equation 1) in Origin Version 2020b (OriginLab, Northampton, MA), where v is the velocity of the reaction; Vmax is the theoretical maximum velocity; KM is the Michaelis constant; and [S] is the substrate concentration: […]

PDC-88 [9] = molecular target: T2, PDC-88 (Pseudomonas aeruginosa, UniProt P24735, DEL316-317/G27D/G391A/T105A/V205L/V356I); assay: Spectrophotometric β-lactam hydrolysis (progress curves, steady-state kinetics) by PDC-88; type: biochemical
T2 construct: NdeI 5′-[…]-3ʹ and BamHI 5ʹ-[…]-3ʹ; His tag removed) (N); made in house; host or cells: E. coli BL21-CodonPlus (DE3)-RP, pET24a(+)
Experimental: as §3, §4, §5, §6

PDC-88 [10] = assay: as above; type: biochemical, Pseudomonas aeruginosa; conditions: cefepime as substrate
Experimental: as §3, §4, §5, §6

P. aeruginosa isolates = conditions: 200 well-characterized P. aeruginosa isolates; cited from earlier work
[11] = FEP hydrolysis by PDC-3, 1× PBS pH 7.4, room temperature
[12] = FEP hydrolysis by PDC-88, 1× PBS pH 7.4, room temperature

CO/N=C(\C(=O)N[C@@H]1C(=O)N2C(C(=O)[O-])=C(C[N+]3(C)CCCC3)CS[C@H]12)c1csc(N)n1 [FEP, cefepime]
MIC ([1]; read-out: MIC FEP AVI): 0.12 µg/mL (≈ 0.25 µM) | MIC ([1]; read-out: MIC FEP Alone): 0.12 µg/mL (≈ 0.25 µM) | MIC ([1]; read-out: MIC FEP TAN): 0.12 µg/mL (≈ 0.25 µM) | MIC ([1]; read-out: MIC FEP TZB): 0.12 µg/mL (≈ 0.25 µM) | MIC ([2]; read-out: MIC FEP TZB): 2 µg/mL (≈ 4.16 µM) | MIC ([2]; E. coli DH10B/pTU606 (PDC-1), read-out: MIC FEP Alone): 2 µg/mL (≈ 4.16 µM) | MIC ([3]; read-out: MIC FEP AVI): 0.25 µg/mL (≈ 0.52 µM) | MIC ([3]; read-out: MIC FEP TZB): 2 µg/mL (≈ 4.16 µM) | MIC ([3]; E. coli DH10B/pTU609 (PDC-3), FEP with TAN at constant 4 µg/mL, read-out: MIC FEP TAN): 0.25 µg/mL (≈ 0.52 µM) | MIC ([3]; E. coli DH10B/pTU609 (PDC-3), read-out: MIC FEP Alone): 2 µg/mL (≈ 4.16 µM) | MIC ([4]; read-out: MIC FEP AVI): 0.25 µg/mL (≈ 0.52 µM) | MIC ([4]; read-out: MIC FEP TZB): 16 µg/mL (≈ 33.3 µM) | MIC ([4]; E. coli DH10B/pTU625 (PDC-88), FEP with TAN at constant 4 µg/mL, read-out: MIC FEP TAN): 0.25 µg/mL (≈ 0.52 µM) | MIC ([4]; E. coli DH10B/pTU625 (PDC-88), read-out: MIC FEP Alone): 32 µg/mL (≈ 66.6 µM) | increase of cefepime MIC, PDC-88 compared to PDC-3 ([4]; {}): 16 fold | MIC ([5]; read-out: MIC FEP AVI): 0.25 µg/mL (≈ 0.52 µM) | MIC ([5]; read-out: MIC FEP TZB): 16 µg/mL (≈ 33.3 µM) | MIC ([5]; E. coli DH10B/pTU626 (PDC-89), FEP with TAN at constant 4 µg/mL, read-out: MIC FEP TAN): 0.25 µg/mL (≈ 0.52 µM) | MIC ([5]; E. coli DH10B/pTU626 (PDC-89), read-out: MIC FEP Alone): 32 µg/mL (≈ 66.6 µM) | MIC ([6]; read-out: MIC FEP AVI): 0.5 µg/mL (≈ 1.04 µM) | MIC ([6]; read-out: MIC FEP TZB): 32 µg/mL (≈ 66.6 µM) | MIC ([6]; E. coli DH10B/pTU627 (PDC-90), FEP with TAN at constant 4 µg/mL, * median value reported, read-out: MIC FEP TAN): 0.5 µg/mL (≈ 1.04 µM) | MIC ([6]; E. coli DH10B/pTU627 (PDC-90), read-out: MIC FEP Alone): 64 µg/mL (≈ 133 µM) | MIC ([7]; read-out: MIC FEP AVI): 0.5 µg/mL (≈ 1.04 µM) | MIC ([7]; read-out: MIC FEP TZB): 32 µg/mL (≈ 66.6 µM) | MIC ([7]; E. coli DH10B/pTU628 (PDC-91), FEP with TAN at constant 4 µg/mL, read-out: MIC FEP TAN): 0.5 µg/mL (≈ 1.04 µM) | MIC ([7]; E. coli DH10B/pTU628 (PDC-91), read-out: MIC FEP Alone): 32 µg/mL (≈ 66.6 µM) | MIC ([8]; read-out: MIC FEP AVI): 0.5 µg/mL (≈ 1.04 µM) | MIC ([8]; read-out: MIC FEP TZB): 32 µg/mL (≈ 66.6 µM) | MIC ([8]; E. coli DH10B/pTU629 (PDC-92), FEP with TAN at constant 4 µg/mL, read-out: MIC FEP TAN): 0.25 µg/mL (≈ 0.52 µM) | MIC ([8]; E. coli DH10B/pTU629 (PDC-92), read-out: MIC FEP Alone): 64 µg/mL (≈ 133 µM) | MIC (E. coli NCTC 13353; NCTC13353, read-out: MIC FEP Alone): 64 µg/mL (≈ 133 µM) | MIC (E. coli NCTC 13353; NCTC13353, read-out: MIC FEP TAN): 0.12 µg/mL (≈ 0.25 µM) | Km (PDC-3; [11]): 205 ± 9 µM | kcat (PDC-3; [11]): 0.25 ± 0.02 s⁻¹ | hydrolysis progress curve (PDC-3; PDC-3, over 900 s, versus UV-mediated background): slightly above background | Km (PDC-88 [9]; [12]): 16 ± 1 µM | kcat (PDC-88 [9]; [12]): 0.16 ± 0.01 s⁻¹ | hydrolysis progress curve (PDC-88 [9]; PDC-88, over 900 s, compared to PDC-3): increased hydrolysis | decrease of KM, PDC-88 compared to PDC-3 (PDC-88 [10]): 12.8 fold | decrease of kcat, PDC-88 compared to PDC-3 (PDC-88 [10]): 1.6 fold | higher catalytic efficiency (kcat/KM) of PDC-88 compared to PDC-3 (PDC-88 [10]): approximately 8.3 fold | higher catalytic efficiency (kcat/KM) of PDC-88 compared to PDC-3 (PDC-88 [10]; listed as cefepime): 8.3 fold | susceptibility of isolates (P. aeruginosa isolates): 1.5%
